The text below walks through data of patent US7932063B2, “Treatment of biomass to obtain fermentable sugars” (E. I. du Pont de Nemours and Company, priority 2005, dated 2011).

For this data set, the system named is Z. mobilis strain 8b.
Where [1] appears, read: medium supplemented with 7.2 g/L acetic acid, pH 6.0, 30° C., vs unsupplemented control, FIG. 1.
The mark [2] stands for this setting: medium supplemented with 6 g/L acetamide, pH 6.0, 30° C., vs unsupplemented control, FIG. 1.

Read-outs that look alike come from different tables or passages of the source.

Description: Fermentation medium was composed of 10 g/L yeast extract, 2 g/L KH2PO4, 70 g/L glucose, 40 g/L xylose and 0.1 M MES buffer.

With `CC(=O)O` [acetic acid], under setting [1], the “cell yield (as measured by dry cell mass)” value is reported as “lower cell yield” and the “growth rate of Z. mobilis” value is “reduced growth rate”.

With `CC(N)=O` [acetamide], under setting [2], the “final density of Z. mobilis” value is reported as “no influence” and the “growth rate of Z. mobilis” value is “no influence”. The “inhibition of biocatalyst growth” value (summary statement referring to Example 12) was “non-inhibitory”.
